This is an account of results in paper PMC11071266, “The putative proton-coupled organic cation antiporter is involved in uptake of triptans into human brain capillary endothelial cells” (Fluids and Barriers of the CNS, 2024).

Data set [1] concerns H^+/OC antiporter. More on the design: method as in PMID 35955563. The note with it: trans-stimulation in hCMEC/D3 cells; cited from earlier work.
Another data set addresses P-gp (Homo sapiens, UniProt P08183). Also noted: expressed in transfected cells; host or cells: IPEC-J2 (porcine ileum epithelial cell line); method as in PMID 12438524. The conditions noted are these: MDR1-MDCKII cell line; cited from earlier work.
The nature of data set [2]: Physicochemical properties extracted from databases. The text has this: Triptans are a relatively homogeneous group of drug compounds with similar physicochemical properties, including molecular weights < 400 g/mol and a low to moderate lipophilicity (cLogD values ranging from − 2.1–0.18). […] As a consequence, it is unlikely that triptans cross the brain microvascular endothelium through passive diffusion to a clinically relevant extent. Table 1 summarizes structures and physicochemical properties of the triptans, as well as oxycodone and pyrilamine, which are two prototypical H^+/OC antiporter substrates included in this study.

In data set [3] the test system is H^+/OC antiporter. As to the kind of experiment: Inhibition of [^3H]-pyrilamine uptake into hCMEC/D3 cells. It counts as cell-based, human. The note with it: [^3H]-pyrilamine 1 µCi/mL, 48 nM, read-out: Apparent IC50 on [^3H]-pyrilamine uptake. On the procedure:
The immortalized human cerebral microvascular endothelial cell line (hCMEC/D3) was maintained in T75-flasks coated with collagen type I from calf skin (C9791, 18.7 μg/mL) and cultured in EBM®-2 medium (Lonza, Basel, Schweiz) supplemented with 5% (v/v) fetal bovine serum (FBS, 10270, Life Technologies, CA, USA or SH3008803, ThermoFisher Scientific, MA, USA), 100 U/mL penicillin and 100 μg/ml streptomycin, 1 ng/mL human basic fibroblast growth factor (bFGF), 1.4 μM hydrocortisone, 1% (v/v) chemically defined lipid concentrate (ThermoFisher Scientific, MA, USA), 10 mM N-2-hydroxyethylpiperazine-N-2-ethane sulfonic acid (HEPES) and 5 μg/mL ascorbic acid (5% CO2, 37 °C). […] For experiments, cells were seeded into 24-well plates (6.7·10^4 cells/cm^2) and cultured for four continuous days. The cells were used for experiments between passage 3–31.
The cells were equilibrated in hHBSS with or without inhibitor for 15 min (37 °C, 90 rpm). The compound of interest was spiked into the hHBSS followed by incubation for a designated time. The timeframe of the initial uptake rate was validated into hCMEC/D3 cells (Fig. 1 and Additional file 1). The experiment was terminated by washing three times with ice-cold HBSS supplemented with 0.0375% (v/v) sodium bicarbonate.
The inhibitory constant at 50% inhibition (IC50) was determined by fitting the uptake flux (Jss) as function of the logarithmic inhibitor concentration to Eq. 2.2 Jss=Jmin+(Jmax-Jmin)/1+10^logIC50-InH where [I] is the inhibitor concentration, nH is the Hill coefficient.
The hCMEC/D3 cells were used for [^3H]-pyrilamine inhibition studies between passage 3–6 (pyrilamine, oxycodone), 16–18 (almotriptan), 7–13 (eletriptan), 25–27 (frovatriptan), 3–8 (naratriptan), 16–18 (rizatriptan), 12–14 (sumatriptan), and 14–16 (zolmitriptan).
The cells were permeabilized using 0.1% (v/v) Triton X-100 in ultrapure water (ELGA, Buckinghamshire, England) for 10 min at room temperature. Thereafter, the cells were scraped off the bottom of the wells, transferred to scintillation vials, and mixed with 2 mL of Ultima Gold 241 TM (Perkin Elmer, MA, USA). The samples were analyzed using a Tri-Carb 2910 TR Liquid Scintillation Analyzer (Perkin Elmer, MA, USA).

For data set [4] the following is noted: pH 7.4; extracted from ChemSpider; cited from earlier work.
Data set [5] deals with organic cation transporter 1 (OCT1). More on the design: method as in PMID 35955563. The conditions noted are these: cited from earlier work.

Chain of P-gp (P08183 whole entry, the tested form may be a part): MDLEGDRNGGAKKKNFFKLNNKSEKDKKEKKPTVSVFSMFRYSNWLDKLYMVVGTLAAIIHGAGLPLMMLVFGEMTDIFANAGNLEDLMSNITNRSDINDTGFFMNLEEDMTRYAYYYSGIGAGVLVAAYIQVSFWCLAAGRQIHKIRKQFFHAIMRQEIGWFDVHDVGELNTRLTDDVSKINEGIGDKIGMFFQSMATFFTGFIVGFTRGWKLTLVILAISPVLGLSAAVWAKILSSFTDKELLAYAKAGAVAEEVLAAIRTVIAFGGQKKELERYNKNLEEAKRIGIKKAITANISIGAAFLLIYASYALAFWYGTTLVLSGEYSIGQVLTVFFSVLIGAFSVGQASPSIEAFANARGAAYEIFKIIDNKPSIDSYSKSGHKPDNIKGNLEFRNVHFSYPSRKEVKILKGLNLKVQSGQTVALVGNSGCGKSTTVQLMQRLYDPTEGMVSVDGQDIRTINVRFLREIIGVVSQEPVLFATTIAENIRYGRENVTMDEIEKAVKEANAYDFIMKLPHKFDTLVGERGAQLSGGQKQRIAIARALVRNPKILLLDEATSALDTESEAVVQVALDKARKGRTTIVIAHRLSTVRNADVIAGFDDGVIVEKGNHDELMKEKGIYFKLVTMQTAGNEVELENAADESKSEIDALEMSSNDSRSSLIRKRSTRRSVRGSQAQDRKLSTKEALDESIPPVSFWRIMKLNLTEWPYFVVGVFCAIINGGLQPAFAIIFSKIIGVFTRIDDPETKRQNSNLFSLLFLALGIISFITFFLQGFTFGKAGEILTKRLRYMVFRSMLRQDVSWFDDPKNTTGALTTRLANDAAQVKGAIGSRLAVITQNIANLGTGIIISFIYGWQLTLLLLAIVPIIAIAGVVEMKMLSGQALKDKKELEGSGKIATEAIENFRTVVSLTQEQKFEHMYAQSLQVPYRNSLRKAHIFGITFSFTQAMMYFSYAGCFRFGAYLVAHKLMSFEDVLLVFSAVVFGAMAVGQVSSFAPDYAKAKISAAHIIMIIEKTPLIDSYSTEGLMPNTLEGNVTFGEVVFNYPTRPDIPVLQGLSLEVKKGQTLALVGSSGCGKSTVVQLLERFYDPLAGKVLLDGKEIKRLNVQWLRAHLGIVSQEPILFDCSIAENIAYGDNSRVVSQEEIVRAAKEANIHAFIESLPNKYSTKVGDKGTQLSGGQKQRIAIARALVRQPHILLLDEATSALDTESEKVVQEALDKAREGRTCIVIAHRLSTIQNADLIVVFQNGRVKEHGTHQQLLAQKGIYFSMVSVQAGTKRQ

A word on the IC50: it is the midpoint of a concentration-inhibition curve. With `CN(C)CCc1c[nH]c2ccc(C[C@H]3COC(=O)N3)cc12` [Zolmitriptan], the “H^+/OC antiporter substrate” value in the data set on H^+/OC antiporter [1] is “did not appear to be H^+/OC antiporter substrate candidates”. Further, at P-gp, the ER is 2.48. Besides, in data set [2], the “Overall charge pH 7.4” value was “Positive”. Besides, in the data set on H^+/OC antiporter [3], the IC50 is 1.73 ± 1.21 mM. In data set [4], the “cLogD pH 7.4” value was 0.4. Moreover, the OCT1 substrate result in data set [5] is “substrates of OCT1”.
